Reference: US20260262643A1, “HERBICIDAL BENZOXAZINES” (FMC CORPORATION, priority 2022, published 2026)

Experiments:
[1] = system: blackgrass; assay: Test C preemergence; format: in vivo, Alopecurus myosuroides; settings: preemergence, 0 to 100 scale (0 no effect, 100 complete control)
Summary of the method: (§1)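 Visual injury score, 0–100 (100 = complete control), taken 10 days after treatment relative to untreated controls. Pre: directed spray onto soil over sown seeds. Post: foliar spray at one- to two-leaf stage, 2–10 cm. Solvent/surfactant formulation; loam–sand soil; greenhouse.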

[2] = system: corn; assay: Test C postemergence; format: in vivo, Zea mays; settings: 10 days, 0 to 100 scale (0 no effect, 100 complete control)
Summary of the method: as §1

[3] = system: horseweed; assay: Test C postemergence; format: in vivo, Erigeron canadensis; settings: 10 days, 0 to 100 scale (0 no effect, 100 complete control)
Summary of the method: as §1

[4] = system: ryegrass, Italian; assay: Test C postemergence; format: in vivo, Lolium multiflorum; settings: 10 days, 0 to 100 scale (0 no effect, 100 complete control)
Summary of the method: as §1

[5] = system: ryegrass, Italian; assay: Test C preemergence; format: in vivo, Lolium multiflorum; settings: preemergence, 0 to 100 scale (0 no effect, 100 complete control)
Summary of the method: as §1

[6] = system: sedge, umbrella; assay: Test D flooded paddy test; format: in vivo, Cyperus difformis; settings: 250 g ai/ha, applied to paddy water, visual rating after 13 to 14 days, scale 0 to 100 (0 no effect, 100 complete control)
Summary of the method: (§2)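 Seedlings reached the 2-leaf stage, then pots were flooded to 3 cm over the soil surface. Compound was applied into the water, depth was maintained, and plants stayed in the greenhouse 13 to 14 days before visual scoring (0–100) relative to controls.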

[7] = system: green foxtail; assay: Test C preemergence; format: in vivo, Setaria viridis; settings: preemergence, 0 to 100 scale (0 no effect, 100 complete control)
Summary of the method: as §1

[8] = system: wheat; assay: Test C preemergence; format: in vivo, Triticum aestivum; settings: preemergence, 0 to 100 scale (0 no effect, 100 complete control)
Summary of the method: as §1

[9] = system: barnyardgrass; assay: Test C postemergence; format: in vivo, Echinochloa crusgalli; settings: 10 days, 0 to 100 scale (0 no effect, 100 complete control)
Summary of the method: as §1

[10] = system: soybean; assay: Test C preemergence; format: in vivo, Glycine max; settings: preemergence, 0 to 100 scale (0 no effect, 100 complete control)
Summary of the method: as §1

[11] = system: pigweed, palmer; assay: Test C postemergence; format: in vivo, Amaranthus palmeri; settings: 10 days, 0 to 100 scale (0 no effect, 100 complete control)
Summary of the method: as §1

[12] = system: blackgrass; assay: Test C postemergence; format: in vivo, Alopecurus myosuroides; settings: 10 days, 0 to 100 scale (0 no effect, 100 complete control)
Summary of the method: as §1

[13] = system: ducksalad; assay: Test D flooded paddy test; format: in vivo, Heteranthera limosa; settings: 250 g ai/ha, applied to paddy water, visual rating after 13 to 14 days, scale 0 to 100 (0 no effect, 100 complete control)
Summary of the method: as §2

[14] = system: barnyardgrass; assay: Test C preemergence; format: in vivo, Echinochloa crusgalli; settings: preemergence, 0 to 100 scale (0 no effect, 100 complete control)
Summary of the method: as §1

[15] = system: galium; assay: Test C postemergence; format: in vivo, Galium aparine; settings: 10 days, 0 to 100 scale (0 no effect, 100 complete control)
Summary of the method: as §1

[16] = system: pigweed, palmer; assay: Test C preemergence; format: in vivo, Amaranthus palmeri; settings: preemergence, 0 to 100 scale (0 no effect, 100 complete control)
Summary of the method: as §1

[17] = system: kochia; assay: Test C preemergence; format: in vivo, Bassia scoparia; settings: preemergence, 0 to 100 scale (0 no effect, 100 complete control)
Summary of the method: as §1

[18] = system: kochia; assay: Test C postemergence; format: in vivo, Bassia scoparia; settings: 10 days, 0 to 100 scale (0 no effect, 100 complete control)
Summary of the method: as §1

[19] = system: soybean; assay: Test C postemergence; format: in vivo, Glycine max; settings: 10 days, 0 to 100 scale (0 no effect, 100 complete control)
Summary of the method: as §1

[20] = system: barnyardgrass; assay: Test D flooded paddy test; format: in vivo, Echinochloa crus-galli; settings: 250 g ai/ha, applied to paddy water, visual rating after 13 to 14 days, scale 0 to 100 (0 no effect, 100 complete control)
Summary of the method: as §2

[21] = system: corn; assay: Test C preemergence; format: in vivo, Zea mays; settings: preemergence, 0 to 100 scale (0 no effect, 100 complete control)
Summary of the method: as §1

[22] = system: oat, wild; assay: Test C postemergence; format: in vivo, Avena fatua; settings: 10 days, 0 to 100 scale (0 no effect, 100 complete control)
Summary of the method: as §1

[23] = system: rice; assay: Test D flooded paddy test; format: in vivo, Oryza sativa; settings: 250 g ai/ha, applied to paddy water, visual rating after 13 to 14 days, scale 0 to 100 (0 no effect, 100 complete control)
Summary of the method: as §2

[24] = system: ragweed; assay: Test C preemergence; format: in vivo, Ambrosia artemisiifolia; settings: preemergence, 0 to 100 scale (0 no effect, 100 complete control)
Summary of the method: as §1

[25] = system: green foxtail; assay: Test C postemergence; format: in vivo, Setaria viridis; settings: 10 days, 0 to 100 scale (0 no effect, 100 complete control)
Summary of the method: as §1

[26] = system: wheat; assay: Test C postemergence; format: in vivo, Triticum aestivum; settings: 10 days, 0 to 100 scale (0 no effect, 100 complete control)
Summary of the method: as §1

[27] = system: ragweed; assay: Test C postemergence; format: in vivo, Ambrosia artemisiifolia; settings: 10 days, 0 to 100 scale (0 no effect, 100 complete control)
Summary of the method: as §1

[28] = system: oat, wild; assay: Test C preemergence; format: in vivo, Avena fatua; settings: preemergence, 0 to 100 scale (0 no effect, 100 complete control)
Summary of the method: as §1

COC(=O)c1ncn(-c2ccc(C)c(C(=O)N3C[C@H](C)Oc4c(Cl)cccc43)c2)n1 [Compound 315]
Blackgrass plant response rating ([1]; 500 g ai/ha): 50 | Blackgrass plant response rating ([1]; Test C, 125 g ai/ha): 0 | Plant response rating, Corn ([2]; 500 g ai/ha, postemergence): 40 | Plant response rating, Corn ([2]; Postemergence, 125 g ai/ha): 30 | Plant response rating, Horseweed ([3]; 500 g ai/ha, postemergence): 30 | Plant response rating, Horseweed ([3]; Postemergence, 125 g ai/ha): 0 | Plant response rating, Ryegrass, Italian ([4]; 500 g ai/ha, postemergence): 80 | Plant response rating, Ryegrass, Italian ([4]; Postemergence, 125 g ai/ha): 60 | Ryegrass, Italian plant response rating ([5]; 500 g ai/ha): 90 | Ryegrass, Italian plant response rating ([5]; Test C, 125 g ai/ha): 40 | Plant response rating, Sedge, Umbrella (Flood) [6]: 60 | Foxtail, Green plant response rating ([7]; 500 g ai/ha): 90 | Foxtail, Green plant response rating ([7]; Test C, 125 g ai/ha): 30 | Wheat plant response rating ([8]; 500 g ai/ha): 30 | Wheat plant response rating ([8]; Test C, 125 g ai/ha): 0 | Plant response rating, Barnyardgrass ([9]; 500 g ai/ha, postemergence): 80 | Plant response rating, Barnyardgrass ([9]; Postemergence, 125 g ai/ha): 60 | Soybean plant response rating ([10]; 500 g ai/ha): 0 | Soybean plant response rating ([10]; Test C, 125 g ai/ha): 0 | Plant response rating, Pigweed, Palmer ([11]; 500 g ai/ha, postemergence): 100 | Plant response rating, Pigweed, Palmer ([11]; Postemergence, 125 g ai/ha): 80 | Plant response rating, Blackgrass ([12]; 500 g ai/ha, postemergence): 90 | Plant response rating, Blackgrass ([12]; Postemergence, 125 g ai/ha): 70 | Plant response rating, Ducksalad (Flood) [13]: 85 | Barnyardgrass plant response rating ([14]; 500 g ai/ha): 90 | Barnyardgrass plant response rating ([14]; Test C, 125 g ai/ha): 0 | Plant response rating, Galium ([15]; 500 g ai/ha, postemergence): 70 | Plant response rating, Galium ([15]; Postemergence, 125 g ai/ha): 70 | Pigweed, Palmer plant response rating ([16]; 500 g ai/ha): 100 | Pigweed, Palmer plant response rating ([16]; Test C, 125 g ai/ha): 10 | Kochia plant response rating ([17]; 500 g ai/ha): 0 | Kochia plant response rating ([17]; Test C, 125 g ai/ha): 0 | Plant response rating, Kochia ([18]; 500 g ai/ha, postemergence): 50 | Plant response rating, Kochia ([18]; Postemergence, 125 g ai/ha): 40 | Plant response rating, Soybean ([19]; 500 g ai/ha, postemergence): 100 | Plant response rating, Soybean ([19]; Postemergence, 125 g ai/ha): 70 | Plant response rating, Barnyardgrass (Flood) [20]: 15 | Corn plant response rating ([21]; 500 g ai/ha): 0 | Corn plant response rating ([21]; Test C, 125 g ai/ha): 0 | Plant response rating, Oat, Wild ([22]; 500 g ai/ha, postemergence): 90 | Plant response rating, Oat, Wild ([22]; Postemergence, 125 g ai/ha): 50 | Plant response rating, Rice (Flood) [23]: 10 | Ragweed plant response rating ([24]; 500 g ai/ha): 30 | Ragweed plant response rating ([24]; Test C, 125 g ai/ha): 0 | Plant response rating, Foxtail, Green ([25]; 500 g ai/ha, postemergence): 90 | Plant response rating, Foxtail, Green ([25]; Postemergence, 125 g ai/ha): 80 | Plant response rating, Wheat ([26]; 500 g ai/ha, postemergence): 90 | Plant response rating, Wheat ([26]; Postemergence, 125 g ai/ha): 80 | Plant response rating, Ragweed ([27]; 500 g ai/ha, postemergence): 70 | Plant response rating, Ragweed ([27]; Postemergence, 125 g ai/ha): 70 | Oat, Wild plant response rating ([28]; 500 g ai/ha): 60 | Oat, Wild plant response rating ([28]; Test C, 125 g ai/ha): 0

COc1ncn(-c2cccc(C(=O)N3C[C@H](C)Oc4c(C)cccc43)c2)n1 [Compound 307]
Blackgrass plant response rating ([1]; 500 g ai/ha): 80 | Blackgrass plant response rating ([1]; Test C, 125 g ai/ha): 40 | Plant response rating, Corn ([2]; 500 g ai/ha, postemergence): 50 | Plant response rating, Corn ([2]; Postemergence, 125 g ai/ha): 10 | Plant response rating, Horseweed ([3]; 500 g ai/ha, postemergence): 30 | Plant response rating, Horseweed ([3]; Postemergence, 125 g ai/ha): 20 | Plant response rating, Ryegrass, Italian ([4]; 500 g ai/ha, postemergence): 70 | Plant response rating, Ryegrass, Italian ([4]; Postemergence, 125 g ai/ha): 60 | Ryegrass, Italian plant response rating ([5]; 500 g ai/ha): 80 | Ryegrass, Italian plant response rating ([5]; Test C, 125 g ai/ha): 80 | Plant response rating, Sedge, Umbrella (Flood) [6]: 0 | Foxtail, Green plant response rating ([7]; 500 g ai/ha): 100 | Foxtail, Green plant response rating ([7]; Test C, 125 g ai/ha): 100 | Wheat plant response rating ([8]; 500 g ai/ha): 90 | Wheat plant response rating ([8]; Test C, 125 g ai/ha): 10 | Plant response rating, Barnyardgrass ([9]; 500 g ai/ha, postemergence): 80 | Plant response rating, Barnyardgrass ([9]; Postemergence, 125 g ai/ha): 50 | Soybean plant response rating ([10]; 500 g ai/ha): 100 | Soybean plant response rating ([10]; Test C, 125 g ai/ha): 20 | Plant response rating, Pigweed, Palmer ([11]; 500 g ai/ha, postemergence): 50 | Plant response rating, Pigweed, Palmer ([11]; Postemergence, 125 g ai/ha): 20 | Plant response rating, Blackgrass ([12]; 500 g ai/ha, postemergence): 90 | Plant response rating, Blackgrass ([12]; Postemergence, 125 g ai/ha): 70 | Plant response rating, Ducksalad (Flood) [13]: 0 | Barnyardgrass plant response rating ([14]; 500 g ai/ha): 90 | Barnyardgrass plant response rating ([14]; Test C, 125 g ai/ha): 40 | Plant response rating, Galium ([15]; 500 g ai/ha, postemergence): 90 | Plant response rating, Galium ([15]; Postemergence, 125 g ai/ha): 80 | Pigweed, Palmer plant response rating ([16]; 500 g ai/ha): 100 | Pigweed, Palmer plant response rating ([16]; Test C, 125 g ai/ha): 60 | Kochia plant response rating ([17]; 500 g ai/ha): 80 | Kochia plant response rating ([17]; Test C, 125 g ai/ha): 40 | Plant response rating, Kochia ([18]; 500 g ai/ha, postemergence): 70 | Plant response rating, Kochia ([18]; Postemergence, 125 g ai/ha): 40 | Plant response rating, Soybean ([19]; 500 g ai/ha, postemergence): 100 | Plant response rating, Soybean ([19]; Postemergence, 125 g ai/ha): 100 | Plant response rating, Barnyardgrass (Flood) [20]: 0 | Corn plant response rating ([21]; 500 g ai/ha): 10 | Corn plant response rating ([21]; Test C, 125 g ai/ha): 0 | Plant response rating, Oat, Wild ([22]; 500 g ai/ha, postemergence): 80 | Plant response rating, Oat, Wild ([22]; Postemergence, 125 g ai/ha): 20 | Plant response rating, Rice (Flood) [23]: 0 | Ragweed plant response rating ([24]; 500 g ai/ha): 50 | Ragweed plant response rating ([24]; Test C, 125 g ai/ha): 0 | Plant response rating, Foxtail, Green ([25]; 500 g ai/ha, postemergence): 90 | Plant response rating, Foxtail, Green ([25]; Postemergence, 125 g ai/ha): 60 | Plant response rating, Wheat ([26]; 500 g ai/ha, postemergence): 80 | Plant response rating, Wheat ([26]; Postemergence, 125 g ai/ha): 10 | Plant response rating, Ragweed ([27]; 500 g ai/ha, postemergence): 50 | Plant response rating, Ragweed ([27]; Postemergence, 125 g ai/ha): 0 | Oat, Wild plant response rating ([28]; 500 g ai/ha): 90 | Oat, Wild plant response rating ([28]; Test C, 125 g ai/ha): 50
